Measurements from PubChem BioAssay AID1963975 (Molecular Pharmacology Branch, DTP, NCI, 2024).

System: 624824-186-R-J2-PDC multicell spheroids, viability
Test: Anticancer human tumor 624824-186-R-J2-PDC patient-derived colon adenocarcinoma cell line growth inhibition [PI3K]
Conditions: for IC50: curve of first compound; for viability, T/C: stronger effect = lower value
How it was run: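 We assembled tumor spheroids that included a stromal compartment of HUVEC and MSCs, then exposed them to targeted agents alone and together with PI3K pathway inhibitors. Concentration series descended by half-log from clinically achievable Cmax levels. Viability served as the endpoint.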

[1] = second compound 0.00316 µM, first compound 0.0316 µM
[2] = second compound 0.00316 µM, first compound 0.1 µM
[3] = second compound 0.00316 µM, first compound 0.316 µM
[4] = second compound 0.00316 µM, first compound 1 µM
[5] = second compound 0.00316 µM, first compound 3.16 µM
[6] = second compound 0.00316 µM, first compound 10 µM
[7] = second compound 0.01 µM, first compound 0.0316 µM
[8] = second compound 0.01 µM, first compound 0.1 µM
[9] = second compound 0.01 µM, first compound 0.316 µM
[10] = second compound 0.01 µM, first compound 1 µM
[11] = second compound 0.01 µM, first compound 3.16 µM
[12] = second compound 0.01 µM, first compound 10 µM
[13] = second compound 0.0316 µM, first compound 0.0316 µM
[14] = second compound 0.0316 µM, first compound 0.1 µM
[15] = second compound 0.0316 µM, first compound 0.316 µM
[16] = second compound 0.0316 µM, first compound 1 µM
[17] = second compound 0.0316 µM, first compound 3.16 µM
[18] = second compound 0.0316 µM, first compound 10 µM
[19] = second compound 0.1 µM, first compound 0.0316 µM
[20] = second compound 0.1 µM, first compound 0.1 µM
[21] = second compound 0.1 µM, first compound 0.316 µM
[22] = second compound 0.1 µM, first compound 1 µM
[23] = second compound 0.1 µM, first compound 3.16 µM
[24] = second compound 0.1 µM, first compound 10 µM
[25] = second compound 0.316 µM, first compound 0.0316 µM
[26] = second compound 0.316 µM, first compound 0.1 µM
[27] = second compound 0.316 µM, first compound 0.316 µM
[28] = second compound 0.316 µM, first compound 1 µM
[29] = second compound 0.316 µM, first compound 3.16 µM
[30] = second compound 0.316 µM, first compound 10 µM
[31] = second compound 1 µM, first compound 0.0316 µM
[32] = second compound 1 µM, first compound 0.1 µM
[33] = second compound 1 µM, first compound 0.316 µM
[34] = second compound 1 µM, first compound 1 µM
[35] = second compound 1 µM, first compound 3.16 µM
[36] = second compound 1 µM, first compound 10 µM
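Further: spheroids exposed to agents for 7 days before viability read.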
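Wherever viability, T/C is given: 100% = DMSO vehicle treated spheroids.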

Structure (SMILES): C#Cc1c(F)ccc2cc(O)cc(-c3ncc4c(N5CC6CCC(C5)N6)nc(OCC56CCCN5CC(F)C6)nc4c3F)c12 (stereo not drawn) + CC(Nc1ccc2c(c1)OCCn1cc(N3C(=O)OCC3C(F)F)nc1-2)C(N)=O
- IC50 (second compound 0.00316 µM): > 10 µM
- IC50 (second compound 0.01 µM): > 10 µM
- IC50 (second compound 0.0316 µM): > 10 µM
- IC50 (second compound 0.1 µM): > 10 µM
- IC50 (second compound 0.316 µM): > 10 µM
- IC50 (second compound 1 µM): > 10 µM
- viability, T/C [1]: 90%
- viability, T/C [2]: 98.3%
- viability, T/C [3]: 123%
- viability, T/C [4]: 87.4%
- viability, T/C [5]: 105%
- viability, T/C [6]: 106%
- viability, T/C [7]: 116%
- viability, T/C [8]: 103%
- viability, T/C [9]: 82.6%
- viability, T/C [10]: 89%
- viability, T/C [11]: 94.9%
- viability, T/C [12]: 86.5%
- viability, T/C [13]: 91.6%
- viability, T/C [14]: 116%
- viability, T/C [15]: 79.2%
- viability, T/C [16]: 102%
- viability, T/C [17]: 106%
- viability, T/C [18]: 82.2%
- viability, T/C [19]: 121%
- viability, T/C [20]: 88.1%
- viability, T/C [21]: 80.6%
- viability, T/C [22]: 82.5%
- viability, T/C [23]: 93.3%
- viability, T/C [24]: 100%
- viability, T/C [25]: 101%
- viability, T/C [26]: 76.2%
- viability, T/C [27]: 79%
- viability, T/C [28]: 85.1%
- viability, T/C [29]: 86.8%
- viability, T/C [30]: 81.8%
- viability, T/C [31]: 78.1%
- viability, T/C [32]: 80.3%
- viability, T/C [33]: 82%
- viability, T/C [34]: 94.4%
- viability, T/C [35]: 93.2%
- viability, T/C [36]: 91.1%

Structure (SMILES): CC1(C)CCC(Nc2ncc(C(F)(F)F)c(-c3c[nH]c4c(P(C)(C)=O)c(C#N)ccc34)n2)CN1 (stereo not drawn) + CC(Nc1ccc2c(c1)OCCn1cc(N3C(=O)OCC3C(F)F)nc1-2)C(N)=O
- IC50 (second compound 0.00316 µM): 3.92 µM
- IC50 (second compound 0.01 µM): 3.61 µM
- IC50 (second compound 0.0316 µM): 4.16 µM
- IC50 (second compound 0.1 µM): 3.16 µM
- IC50 (second compound 0.316 µM): 3.46 µM
- IC50 (second compound 1 µM): 3.23 µM
- viability, T/C [1]: 73.8%
- viability, T/C [2]: 84.7%
- viability, T/C [3]: 86.4%
- viability, T/C [4]: 98.7%
- viability, T/C [5]: 59.7%
- viability, T/C [6]: 7.81%
- viability, T/C [7]: 71.8%
- viability, T/C [8]: 70.3%
- viability, T/C [9]: 85%
- viability, T/C [10]: 99.8%
- viability, T/C [11]: 55.6%
- viability, T/C [12]: 7.27%
- viability, T/C [13]: 66.1%
- viability, T/C [14]: 72.4%
- viability, T/C [15]: 93.3%
- viability, T/C [16]: 108%
- viability, T/C [17]: 63.9%
- viability, T/C [18]: 5.65%
- viability, T/C [19]: 74.4%
- viability, T/C [20]: 85.3%
- viability, T/C [21]: 87.1%
- viability, T/C [22]: 105%
- viability, T/C [23]: 50%
- viability, T/C [24]: 5.2%
- viability, T/C [25]: 68.2%
- viability, T/C [26]: 81.9%
- viability, T/C [27]: 90.2%
- viability, T/C [28]: 93.7%
- viability, T/C [29]: 53.9%
- viability, T/C [30]: 4.99%
- viability, T/C [31]: 78.5%
- viability, T/C [32]: 83.1%
- viability, T/C [33]: 91.1%
- viability, T/C [34]: 72.9%
- viability, T/C [35]: 51.5%
- viability, T/C [36]: 5.93%

Structure (SMILES): CNC(=O)c1ccc(N2C(=S)N(c3ccc(C#N)c(C(F)(F)F)c3)C(=O)C2(C)C)cc1F + CC(Nc1ncnc2nc[nH]c12)c1cc2cccc(Cl)c2c(=O)n1-c1ccccc1
- IC50 (second compound 0.0316 µM): > 10 µM
- IC50 (second compound 0.1 µM): > 10 µM
- IC50 (second compound 0.316 µM): > 10 µM
- IC50 (second compound 1 µM): > 10 µM
- IC50 (second compound 3.16 µM): > 10 µM
- IC50 (second compound 10 µM): > 10 µM
- viability, T/C [13]: 94.8%
- viability, T/C [14]: 95.8%
- viability, T/C [15]: 74.2%
- viability, T/C [16]: 98.4%
- viability, T/C [17]: 102%
- viability, T/C [18]: 116%
- viability, T/C [19]: 104%
- viability, T/C [20]: 101%
- viability, T/C [21]: 100%
- viability, T/C [22]: 95.8%
- viability, T/C [23]: 86.5%
- viability, T/C [24]: 124%
- viability, T/C [25]: 106%
- viability, T/C [26]: 114%
- viability, T/C [27]: 78.8%
- viability, T/C [28]: 95.4%
- viability, T/C [29]: 93.1%
- viability, T/C [30]: 101%
- viability, T/C [31]: 94.9%
- viability, T/C [32]: 92.2%
- viability, T/C [33]: 101%
- viability, T/C [34]: 84.4%
- viability, T/C [35]: 122%
- viability, T/C [36]: 117%
- viability, T/C (second compound 3.16 µM, first compound 0.0316 µM): 115%
- viability, T/C (second compound 3.16 µM, first compound 0.1 µM): 79.2%
- viability, T/C (second compound 3.16 µM, first compound 0.316 µM): 91.1%
- viability, T/C (second compound 3.16 µM, first compound 1 µM): 127%
- viability, T/C (second compound 3.16 µM, first compound 3.16 µM): 83.2%
- viability, T/C (second compound 3.16 µM, first compound 10 µM): 96.9%
- viability, T/C (second compound 10 µM, first compound 0.0316 µM): 101%
- viability, T/C (second compound 10 µM, first compound 0.1 µM): 120%
- viability, T/C (second compound 10 µM, first compound 0.316 µM): 107%
- viability, T/C (second compound 10 µM, first compound 1 µM): 90.7%
- viability, T/C (second compound 10 µM, first compound 3.16 µM): 101%
- viability, T/C (second compound 10 µM, first compound 10 µM): 117%

Structure (SMILES): Cn1cnc2c(F)c(Nc3ccc(Br)cc3Cl)c(C(=O)NOCCO)cc21 + CC(Nc1ncnc2nc[nH]c12)c1cc2cccc(Cl)c2c(=O)n1-c1ccccc1
- IC50 (second compound 0.0316 µM): > 3 µM
- IC50 (second compound 0.1 µM): > 3 µM
- IC50 (second compound 0.316 µM): > 3 µM
- IC50 (second compound 1 µM): > 3 µM
- IC50 (second compound 3.16 µM): > 3 µM
- IC50 (second compound 10 µM): > 3 µM
- viability, T/C (second compound 0.0316 µM, first compound 0.00949 µM): 73.3%
- viability, T/C (second compound 0.0316 µM, first compound 0.03 µM): 89.5%
- viability, T/C (second compound 0.0316 µM, first compound 0.0949 µM): 69.2%
- viability, T/C (second compound 0.0316 µM, first compound 0.3 µM): 63.5%
- viability, T/C (second compound 0.0316 µM, first compound 0.949 µM): 68%
- viability, T/C (second compound 0.0316 µM, first compound 3 µM): 60.6%
- viability, T/C (second compound 0.1 µM, first compound 0.00949 µM): 79.8%
- viability, T/C (second compound 0.1 µM, first compound 0.03 µM): 62.7%
- viability, T/C (second compound 0.1 µM, first compound 0.0949 µM): 70.8%
- viability, T/C (second compound 0.1 µM, first compound 0.3 µM): 55.8%
- viability, T/C (second compound 0.1 µM, first compound 0.949 µM): 64.2%
- viability, T/C (second compound 0.1 µM, first compound 3 µM): 62.1%
- viability, T/C (second compound 0.316 µM, first compound 0.00949 µM): 86.9%
- viability, T/C (second compound 0.316 µM, first compound 0.03 µM): 64.5%
- viability, T/C (second compound 0.316 µM, first compound 0.0949 µM): 58.6%
- viability, T/C (second compound 0.316 µM, first compound 0.3 µM): 59.5%
- viability, T/C (second compound 0.316 µM, first compound 0.949 µM): 60.5%
- viability, T/C (second compound 0.316 µM, first compound 3 µM): 61.2%
- viability, T/C (second compound 1 µM, first compound 0.00949 µM): 75.2%
- viability, T/C (second compound 1 µM, first compound 0.03 µM): 75.3%
- viability, T/C (second compound 1 µM, first compound 0.0949 µM): 65.1%
- viability, T/C (second compound 1 µM, first compound 0.3 µM): 67%
- viability, T/C (second compound 1 µM, first compound 0.949 µM): 58.5%
- viability, T/C (second compound 1 µM, first compound 3 µM): 53.5%
- viability, T/C (second compound 3.16 µM, first compound 0.00949 µM): 78.2%
- viability, T/C (second compound 3.16 µM, first compound 0.03 µM): 74.7%
- viability, T/C (second compound 3.16 µM, first compound 0.0949 µM): 60.6%
- viability, T/C (second compound 3.16 µM, first compound 0.3 µM): 59.6%
- viability, T/C (second compound 3.16 µM, first compound 0.949 µM): 56.2%
- viability, T/C (second compound 3.16 µM, first compound 3 µM): 50.6%
- viability, T/C (second compound 10 µM, first compound 0.00949 µM): 72.7%
- viability, T/C (second compound 10 µM, first compound 0.03 µM): 71.8%
- viability, T/C (second compound 10 µM, first compound 0.0949 µM): 67.4%
- viability, T/C (second compound 10 µM, first compound 0.3 µM): 60.7%
- viability, T/C (second compound 10 µM, first compound 0.949 µM): 57.5%
- viability, T/C (second compound 10 µM, first compound 3 µM): 51.2%
